Results on one substance are retold here after patent publication US12390423B2 (priority 2019, dated 2025).

Assay [1] has as its system INS-1 (832/13) cells. Briefly: Fatty acid oxidation ([1-14C]-palmitate) in INS-1 (832/13) cells. Conditions: 25 μM AvoB, 0.5 mM palmitate-BSA/1 mM L-carnitine, 24 h. It is filed as cell-based, rat. The protocol: FAO in cell lines was determined using established methods. […] [1-^14C]-palmitate was prepared and applied to cells as follows: purchased stock supplied in ethanol (PerkinElmer, MA, USA) was dried in vacuo and then re-suspended in a solution containing unlabeled carrier in BSA to yield a mixture of 7% BSA [w/v], 2.5 mM palmitate with [1-^14C]-palmitate at a final concentration of 10 μCi/mL. Following a 16 hour incubation at 37° C., the solution containing radiolabeled palmitate was diluted with respective serum free cell culture media (low glucose RPMI media for INS-1 (832/13) cells and low glucose DMEM for C2C12 myotubes) containing 1 mM L-carnitine to a final concentration of 0.3% BSA, 100 μM palmitate, and 0.4 μCi/mL [1-^14C]-palmitate. Following incubation of treated cells with [1-^14C]-palmitate, 400 μL of well media was transferred to acidification vials containing perchloric acid and capped with CO2 filter traps impregnated with 1M NaOH. […] The CO2 trap was transferred to scintillation vials containing 4 mL of scintillation fluid and complete FAO was quantified using a Tri-Carb 2910 TR liquid scintillation analyzer (PerkinElmer). The amount of radioactivity in the media was also determined after pelleting cells and debris (14,000×g, 10 min); this quantified acid soluble metabolites (ASMs), an indirect measure of incomplete FAO.

In assay [2] the test system is C2C12 myotubes. Briefly: Glucose oxidation and 2-NBDG glucose uptake in C2C12 myotubes. Type of assay: cell-based, mouse. On the procedure: C2C12 myotubes and INS-1 (832/13) cells treated as in the FAO assays described above and then incubated with D-[^14C(U)]-glucose (0.58 μC/mL) and unlabeled glucose (final glucose concentration 200 μM) for 4 h subsequent to which [^14C]—CO2 (representing complete glucose oxidation) and ASMs (representing incomplete glucose oxidation) were captured and quantified as described in the FAO method. For C2C12 myotubes, glucose oxidation and uptake was measured with and without a 30 min pre-incubation with 100 nM insulin to determine basal and insulin-mediated glucose oxidation or uptake, respectively.
To measure glucose uptake in C2C12 myotubes, a fluorescent D-glucose analog 2-(N-[7-nitrobenz-2-oxa-1,3-diazol-4-yl]amino)-2-deoxy-D-glucose (2-NBDG) was utilized. Briefly, myotubes were treated for 24 h with test compound after which they were washed twice with PBS and starved for 1 h in serum and glucose free DMEM. Following starvation, 100 nM insulin was added for 30 min after which 60 μM 2-NBDG was added to each well and allowed to incubate for 30 min. The 2-NBDG uptake reaction was then stopped by removing the incubation medium and washing the cells twice with PBS after which the cells were trypsinized and collected for flow cytometry analysis (Guava 8HT; EMD Millipore, Billerica, MA).

Assay [3] deals with AMPK activation and mitochondrial biogenesis. Briefly: Immunoblotting (pAMPKα, PGC-1α) and NAO mitochondrial mass in INS-1 (832/13) cells. Type of assay: cell-based, rat. The settings on record: 25 μM AvoB, 24 h. On the procedure: For all ROS studies, INS-1 (832/13) cells and C2C12 myotubes were treated with or without palmitate and FAO inhibitors for 24 h in low glucose cell culture media as described for the FAO assay. After treatment, cells were trypsinized and re-suspended in PBS containing 5 μM of the fluorescent dye MitoSOX® (Molecular Probes, Invitrogen) and allowed to incubate for 5-15 minutes in a humidified atmosphere containing 5% CO2 at 37° C. Cells were then washed in PBS, placed in a 96 well plate and fluorescence was measured by flow cytometry. ROS was quantified by normalizing the mean fluorescence values of live gated cells to vehicle control. Mitochondrial membrane potential (MMP) in INS-1 (832/13) and C2C12 myotubes was measured using the cationic fluorescent dye JC-1 (Molecular Probes). […] JC-1 fluoresces green in the cytosol where it exists as a monomer, after entering the mitochondria JC-1 monomers form J aggregates and fluoresce red, thus the red/green fluorescence ratio is used to determine MMP. […] Cells were then washed in PBS, placed in a 96 well plate and fluorescence was measured by flow cytometry. MMP was quantified by normalizing the mean fluorescence values of live gated cells to vehicle control. […] Cells were treated, washed and collected as described and incubated with 0.35 μM NAO and green fluorescence was measured using flow cytometry. […]

In the case of avocatin B [AvoB], the “Complete FAO ([1-14C]-palmitate oxidation to CO2)” value in assay [1] is given as “inhibited complete FAO”. Also, in assay [2] (25 μM AVO, 0.5 mM palmitate 24 h, vs palmitate only), the “Insulin stimulated glucose uptake (2-NDBG)” value is reported as “increased glucose uptake compared to palmitate only treated cells”. Also, in assay [2] (25 μM AvoB, excess palmitate, 24 h), the “Basal and insulin stimulated glucose oxidation (D-[14C(U)]-glucose to CO2)” value was “increased basal and insulin stimulated glucose oxidation”. For the same substance, in assay [3], the “AMPK activation (pAMPKα-Thr172)” value is reported as “independent of AMP-activated protein kinase (AMPK) activation” and the “Mitochondrial biogenesis (PGC-1α protein, NAO dye)” value was “independent”.
